Measurements reported in article PMC6017603, “Speeding Up the Identification of Cystic Fibrosis Transmembrane Conductance Regulator-Targeted Drugs: An Approach Based on Bioinformatics Strategies and Surface Plasmon Resonance” (Molecules : A Journal of Synthetic Chemistry and Natural …, 2018).

B1: K8: keratin 8, known CFTR chaperone, purchased recombinant protein (protein, UniProt P05787 1-483, looked up)
Keratin, type II cytoskeletal …: MSIRVTQKSYKVSTSGPRAFSSRSYTSGPGSRISSSSFSRVGSSNFRGGLGGGYGGASGMGGITAVTVNQSLLSPLVLEVDPNIQAVRTQEKEQIKTLNNKFASFIDKVRFLEQQNKMLETKWSLLQQQKTARSNMDNMFESYINNLRRQLETLGQEKLKLEAELGNMQGLVEDFKNKYEDEINKRTEMENEFVLIKKDVDEAYMNKVELESRLEGLTDEINFLRQLYEEEIRELQSQISDTSVVLSMDNSRSLDMDSIIAEVKAQYEDIANRSRAEAESMYQIKYEELQSLAGKHGDDLRRTKTEISEMNRNISRLQAEIEGLKGQRASLEAAIADAEQRGELAIKDANAKLSELEAALQRAKQDMARQLREYQELMNVKLALDIEIATYRKLLEGEESRLESGMQNMSIHTKTTSGYAGGLSSAYGGLTSPGLSYSLGSSFGSGAGSSSFSRTSSSRAVVVKKIETRDGKLVSESSDVLPK

What was measured:
[1] = biological target: T1, ΔF508-NBD1/K8 interaction (Mus musculus, UniProt P26361, DEL508-508); assay: SPR competition assay: ΔF508-NBD1 binding to immobilized K8 in the presence of compounds; set-up: species or system murine; details: ΔF508-NBD1 600 nM, compound 500 μM; for ΔF508-NBD1 bound to immobilized K8 at equilibrium in the presence of compound: 5% DMSO, ΔF508-NBD1 alone 35 RU
T1 construct: Murine WT NBD1 and ΔF508-NBD1 were obtained from CFTR Folding Consortium; purchased ΔF508-NBD1: CFTR Folding Consortium (obtained); K8: Pro-Spec-Tany TechnoGene Ltd
T1 sequence (P26361 with tags, fused parts or gaps DEL508-508 limits assumed): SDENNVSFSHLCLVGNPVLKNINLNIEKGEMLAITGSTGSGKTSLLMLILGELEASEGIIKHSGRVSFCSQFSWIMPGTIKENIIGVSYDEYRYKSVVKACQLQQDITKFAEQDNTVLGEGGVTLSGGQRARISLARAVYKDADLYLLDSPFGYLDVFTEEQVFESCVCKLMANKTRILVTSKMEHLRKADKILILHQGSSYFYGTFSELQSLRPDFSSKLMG
Method: K8 was used since, as a representative ΔF508-CFTR chaperones, has been repeatedly used for SPR studies and its binding site in ΔF508-CFTR has been mapped. To perform competition assays for the binding to ΔF508-NBD1 between the various compounds and K8, the latter was resuspended at 20 µg/mL in 10 mM sodium acetate pH 4.0 and allowed to react with the first flow cell of a CM5 sensor chip pre-activated with 50 μL of 0.2 M EDC and 0.05 M NHS and deactivated by injection of HCl–ethanolamine. This procedure led to the immobilization of 7800 RU of the protein, (equal to approximately 146 fmol/mm^2). Similar results were obtained for the injection of BSA (10 μg/mL) onto the second flow cell of each sensor chip, that was then used as a negative control and for blank subtraction. ΔF508-NBD1 (at 600 nM) in the absence or in the presence of the various compounds (all at 500 μM) in 0.05% surfactant P20 and 5% DMSO, pH 7.4, was injected over the K8 or BSA surfaces for 90 s at 10 μL/min, 25 °C and then washed until dissociation was observed.

[2] = biological target: T2, K8/ΔF508-NBD1 interaction (Mus musculus, UniProt P26361, DEL508-508); assay: SPR injection of compounds onto K8-saturated ΔF508-NBD1 surface; assay type: binding, murine; details: compounds at 150 μM; K8 1 µM saturating
T2 construct: Murine WT NBD1 and ΔF508-NBD1 were obtained from CFTR Folding Consortium; purchased ΔF508-NBD1: CFTR Folding Consortium (obtained); K8: Pro-Spec-Tany TechnoGene Ltd
T2 sequence (P26361 with tags, fused parts or gaps DEL508-508 limits assumed): as above
Method: In a further series of experiments, a saturating amount of K8 (1 µM) was injected on the ΔF508-NBD1 surface and allowed to reach an equilibrium binding. Then, the various compounds of the data-set (150 µM) were injected and their capacity to affect the binding of K8 to ΔF508-NBD1 evaluated.

[3] = biological target: T3, ΔF508-NBD1 (Mus musculus, UniProt P26361, DEL508-508); assay: SPR direct binding to sensor chip-immobilized ΔF508-NBD1; set-up: species or system murine; details: for Kd / RU of ligand bound to ΔF508-NBD1 at equilibrium (maximal RU): SPR; for Kd: Scatchard's plot analysis of equilibrium binding data, mean ± S.D. of two-three analyses, PBS, 0.05% P20, 5% DMSO, pH 7.4, 25 °C; for RU of ligand bound to ΔF508-NBD1 at equilibrium (maximal RU): mean ± s.d. of two-three separate analyses; for binding to ΔF508-NBD1 (SPR): increasing concentrations injected over immobilized ΔF508-NBD1
T3 construct: Murine WT NBD1 and ΔF508-NBD1 were obtained from CFTR Folding Consortium; purchased CFTR Folding Consortium (obtained, not a commercial vendor)
T3 sequence (P26361 with tags, fused parts or gaps DEL508-508 limits assumed): as above
Method: SPR measurements were performed on a BIAcore X-100 instrument (GE-Healthcare, Milwaukee, WI, USA), using research-grade CM5 carboxyl-methyl-dextran–coated sensor chips (GE-Healthcare). The murine ΔF508-NBD1 was resuspended at 20 µg/mL in 10 mM sodium acetate pH 4.0 and allowed to react with the first flow cell of a CM5 sensor chip pre-activated with 50 μL of 0.2 M EDC and 0.05 M NHS and deactivated by injection of HCl–ethanolamine. This procedure led to the immobilization of 11,000 RU, equal to approximately 400 fmol/mm^2 of protein. Similar results were obtained for the injection of BSA (20 µg/mL) onto the second flow cell of each sensor chip, used as a negative control and for blank subtraction. The appropriate immobilization of ΔF508-NBD1 was checked by injecting increasing concentrations of K8 in PBS, 0.05% surfactant P20 and 5% DMSO, pH 7.4 over the sensor chip for 90 s at 10 μL/min, 25 °C and then washed until dissociation was observed. The inclusion of 5% DMSO in the running buffer (not necessary for protein-protein interaction analysis) and the short association time were chosen to validate ΔF508-NBD1 binding availability in the experimental conditions used for the subsequent analysis of the compounds (see below).
For the evaluation of their capacity to directly bind to ΔF508-NBD1, increasing concentrations of the various compounds of the data-set were resuspended in PBS, 0.05% surfactant P20 and 5% DMSO, pH 7.4, injected over ΔF508-NBD1 or BSA surfaces for 90 s at 10 μL/min, 25 °C and then washed until dissociation was observed. Steady state analysis were performed by fitting the proper form of Scatchard’s equation for the plot of the bound RU at equilibrium versus the compound concentration in solution. When saturation binding was reached, Kd values were calculated. In the case no saturation could be reached due the limited solubility of the compound under test, the software provided a Kd value expected on the bases of the curve’s trend.

[4] = system: NBD1; details: cited from earlier work

Row | Molecule | effect of compound injection on K8-saturated ΔF508-NBD1 surface [2] | Kd [3] | RU of ligand bound to ΔF508-NBD1 at equilibrium (maximal RU) [3] | binding to ΔF508-NBD1 (SPR) [3] | other results
1 | CSc1cccc(Nc2nc(-c3ccc4[nH]c(=O)oc4c3)cs2)c1 [Compound 6] | inability of compounds 4 and 6 to alter the binding of K8 | 198 ± 4.5 µM | 114.0 ± 5.6 RU | – | effect on the ΔF508-NBD1/K8 interaction [1]: ineffective
2 | CC(C)(C)c1cc(C(C)(C)C)c(NC(=O)c2c[nH]c3ccccc3c2=O)cc1O [VX770, Ivacaftor, reference compound] | – | – | – | do not bind | binding to NBD1 [4]: does not bind to NBD1
3 | CSc1cccc(Nc2nc(-c3ccc(Br)cc3)cs2)c1 [Compound 4] | inability of compounds 4 and 6 to alter the binding of K8 | 99.3 ± 14.5 µM | 32.0 ± 4.2 RU | – | inhibition at 500 µM [1]: 50%
4 | COc1ccc(Cl)cc1Nc1nc(-c2sc(NC(=O)c3ccccc3)nc2C)cs1 [C4a, reference compound] | – | – | – | do not bind | binding to NBD1 [4]: does not bind to NBD1
5 | CSc1cccc(Nc2nc(-c3cccc(Cl)c3)cs2)c1 [Compound 5] | increase of bound RU | 40.3 ± 2.5 µM | 13.0 ± 1.4 RU | – | ΔF508-NBD1 bound to immobilized K8 at equilibrium in the presence of compound [1]: 45 RU
6 | CSc1cccc(Nc2nc(-c3coc4ccccc34)cs2)c1 [Compound 7] | – | – | 0 to 4 RU | do not bind | –
7 | Cc1ccc(NC(=O)C2(c3ccc4c(c3)OC(F)(F)O4)CC2)nc1-c1cccc(C(=O)O)c1 [VX809, Lumacaftor, reference compound] | increase of bound RU | 24.2 ± 6.2 µM | 163.7 ± 23.7 RU | – | ΔF508-NBD1 bound to immobilized K8 at equilibrium in the presence of compound [1]: 68 RU
8 | B1 | – | – | – | – | binding of K8 to immobilized ΔF508-NBD1 ([3]; K8 600 nM, BSA surface as negative control): specifically binds
